Experimental data as given in paper PMC10342118, “Microbial Metabolites of 3-n-butylphthalide as Monoamine Oxidase A Inhibitors” (International Journal of Molecular Sciences, 2023).
“And” between values parts separate entries of the source, which are not always exact repeats. Equal values may be shown once. Read-outs that look alike come from different tables or passages of the source. Marks after values point to notes of the source that are not given here.

What was measured:
MAO-A [1] = molecular target: T1, MAO-A (Homo sapiens, UniProt P21397); assay: Isothermal titration calorimetry (ITC) of the interaction of MAO-A with the compounds; type: binding
T1 sequence (P21397 1-527): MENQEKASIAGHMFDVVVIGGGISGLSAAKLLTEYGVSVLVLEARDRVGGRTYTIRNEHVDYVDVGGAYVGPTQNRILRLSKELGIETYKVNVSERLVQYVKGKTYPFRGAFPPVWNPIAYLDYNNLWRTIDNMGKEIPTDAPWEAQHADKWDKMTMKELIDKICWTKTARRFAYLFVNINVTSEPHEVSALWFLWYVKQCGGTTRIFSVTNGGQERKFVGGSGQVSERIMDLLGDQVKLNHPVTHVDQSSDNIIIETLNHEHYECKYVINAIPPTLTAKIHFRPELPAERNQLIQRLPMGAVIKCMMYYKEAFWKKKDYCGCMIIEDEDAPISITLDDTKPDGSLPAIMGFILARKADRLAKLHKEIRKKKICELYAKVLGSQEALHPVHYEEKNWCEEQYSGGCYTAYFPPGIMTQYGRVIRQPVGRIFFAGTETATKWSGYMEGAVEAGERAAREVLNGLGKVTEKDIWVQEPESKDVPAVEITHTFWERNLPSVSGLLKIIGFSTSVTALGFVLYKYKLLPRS
Experimental: (§1) Protein-ligand interaction analysis was performed using isothermal titration calorimetry (ITC). During the analysis, the heat of uptake or release, due to the interaction of MAO-A with the tested compounds, was recorded. In this way, raw data were obtained in the form of exothermic heat versus time graphs. Additionally, the ligand was injected into 1% DMSO with methanol to subtract the energetic effects of the dilution of the ligand solution. The highest negative change in enthalpy was characterized by the interaction of the enzyme with compounds 3 (−19.19 kJ/mol) and 4 (−13.37 kJ/mol), and the lowest value of ΔH was recorded during interactions with compound 1 (−4.51 kJ/mol). […] Affinity (ΔG) values were more evenly distributed between compound 1, compounds 1 with 4, 2 with 4, and 2 with 3. […] The ability of the ligands to inhibit […] activity was described on the basis of the IC50 parameter.
(§2) A MicroCal PEAQ-ITC200 calorimeter (Malvern, Worcestershire, UK) was used to study the interactions of MAO-A with the compounds. The enzyme and compounds were prepared in 1% DMSO with methanol. The measurements were performed at 36.6 °C. The stirring speed was set to 307 rpm, and a total of 19 injections were performed within 50 min, with the reference power set to 10.00 μcal/s. All sample solutions were thoroughly degassed before use. The calorimetric cell was filled with a 20 μM (350 µL) MAO-A sample, and the syringe (2 µL of injection volume) was loaded with a 1 mM/L solution or/and 5-HT (1 mM/L). The ITC data were processed using MicroCal PEAQ-ITC analysis software with calorimetric routines. The following parameters were determined: the standard interaction Gibbs energy (ΔG), standard interaction enthalpy (ΔH), entropy (ΔS), equilibrium constant (KD), and stoichiometry of reaction (N).

MAO-A [2] = molecular target: T1, MAO-A; assay: Inhibition of 5-HT deamination by the MAO-A enzyme (ITC); type: biochemical; conditions: for IC50: rate of 5-HT deamination
Experimental: as §1
Compounds 4 and 4 combined with 2 were at a similar level of about 5 μmol/μmol of the enzyme. Substrate 1, tested with lactones 2 and 3, turned out to be the least beneficial compounds, with a high concentration inhibiting the activity of the enzyme by 50%, and had the least favorable affinity. This effect can be explained by the binding of several compounds in the mixture to different MAO-A residues at the active site and in other regions. Molecular docking can be used in future research to confirm this assumption.
as §2

[3] = design: method as in PMID 23169608; conditions: in vivo; cited from earlier work
[4] = design: method as in PMID 34060121; conditions: rat plasma and liver microsomes; cited from earlier work
MAO-A [5] = molecular target: T1, MAO-A; design: method as in PMID 23374869; conditions: MAO-A inhibition; cited from earlier work
primary rat hepatocytes = conditions: concentration 0–500 µM; cited from earlier work
[6] = tested on: primary rat hepatocytes and primary human hepatocytes; conditions: repetitive administration; cited from earlier work
[7] = tested on: primary human hepatocytes; conditions: concentration 0–500 µM; cited from earlier work
[8] = ITC, 36.6 °C, mean ± SD, n = 3, read-out: KD
[9] = KM 5-HT 0.35 mmol, mean ± SD, n = 3, read-out: Ki

Compound	KA ∗ 10^3 (MAO-A [1]; ITC, 36.6 °C, mean ± SD, n = 3)	∆G (affinity) (MAO-A [1]; ITC, 36.6 °C, mean ± SD, n = 3)	∆H (MAO-A [1]; ITC, 36.6 °C, mean ± SD, n = 3)	∆S (MAO-A [1]; ITC, 36.6 °C, mean ± SD, n = 3)	Kd (MAO-A [1]; [8]) [µM]	Ki (MAO-A [2]; [9]) [µM]	IC50 (MAO-A [2])	rank among circulating human metabolites of 3-n-butylphthalide [3]	rank among metabolites of 3-n-butylphthalide [4]	Ki (MAO-A [5]) [µM]	toxicity (primary rat hepatocytes)	Kd (MAO-A [1]) [µM]	cell viability [6]	Ki (MAO-A [2]) [µM]	toxicity [7]
O=C(O)CCCC1OC(=O)c2ccccc21 (centres unmarked) [Compound 4, 3-n-butylphthalide-11-oic acid]	14.83 ± 0.25 ^e 10^3 L/mol	−28.42 kJ/mol and −28.42 ± 1.43 ^j kJ/mol	−13.37 kJ/mol and −13.37 ± 0.02 ^f kJ/mol	48.71 ± 1.05 ^a J/mol ∗ K	67.4 ± 3.15	128 ± 1.25	about 5 μmol/μmol of enzyme	–	–	–	–	–	–	–	–
O=C1OC(CCCCO)c2ccccc21 (centres unmarked) [Compound 3, 3-n-butyl-11-hydroxyphthalide]	4.18 ± 0.35 ^e 10^3 L/mol	−23.49 kJ/mol and −23.49 ± 1.42 ^i kJ/mol	−19.19 kJ/mol and −19.19 ± 0.01 ^f kJ/mol	13.92 ± 0.92 ^a J/mol ∗ K	239 ± 4.25	< 0.001	1.29 μmol/μmol of enzyme	–	–	–	–	–	–	–	–
CC(O)CCC1OC(=O)c2ccccc21 (centres unmarked) [Compound 2, 3-n-butyl-10-hydroxyphthalide]	33.44 ± 0.15 ^a 10^3 L/mol	−26.79 ± 1.55 ^j kJ/mol	−7.77 ± 0.01 ^e kJ/mol	61.55 ± 1.84 ^d J/mol ∗ K	29.9 ± 1.09	994 ± 3.18	–	dominant circulating human metabolite	main metabolite	–	–	–	–	–	–
O=C1OCc2ccc(OCCCc3ccccc3)cc21 [6-phenyl-propoxyphthalide]	–	–	–	–	–	–	–	–	–	0.062	–	–	–	–	–
CCCCC1OC(=O)c2ccccc21 (centres unmarked) [Compound 1, 3-n-butylphthalide]	41.15 ± 0.36 ^d 10^3 L/mol	-6.532 ± 0.272 kcal/mol	−4.51 kJ/mol and −4.51 ± 0.02 ^e kJ/mol	73.85 ± 1.05 ^d J/mol ∗ K	–	–	–	–	–	–	not toxic	24.3 ± 1.39	reduction in cell viability	241 ± 3.55	not toxic
